Assay results reported in patent publication US11298314B2, “Injectable composition for localized fat reduction without pain, edema, and side effects, and method for preparing same” (AMI PHARM CO., LTD., priority 2017, dated 2022).

Tests used:
[1] = Formulation stability of PPC injectable preparations: property, transparency, particle size, pH; details: for bile acid concentration at which stable injectable preparations can be made: based on PPC 5.0%; for bile acid/PPC molar ratio below which a substantially stable formulation did not occur: PPC 5.0%
[2] = system: tissues of the injected area (rat paw); test: H&E staining histological test (inflammation) of injected rat paw; assay type: in vivo, Sprague Dawley rats; details: for Inflammation (H&E), BA % (w/v) 1.0: bile acid single composition 1.0% (w/v); for Inflammation (H&E), BA % (w/v) 1.0 / Inflammation (H&E), BA % (w/v) 2.5 / Inflammation (H&E), BA % (w/v) 5.0: injected rat paw; for Inflammation (H&E), BA % (w/v) 2.5: bile acid single composition 2.5% (w/v); for Inflammation (H&E), BA % (w/v) 5.0: bile acid single composition 5.0% (w/v); for degree of inflammation (H&E) in words: rats sacrificed at 3 hours, injected paw
Experimental: The tissues of the injected area were dissected, fixed with 10% formalin, and then the specimen was prepared and images were captured using an optical microscope. The degree of inflammation was evaluated as follows.

sole of the rat paws = test: Measurement of skin lesion (erythema) on rat paw; assay type: in vivo, Sprague Dawley rats; details: for skin lesion (erythema) in words: 2 hours after administration;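 for grade of skin lesion (erythema), 1 hour after administration: grades − to ++++ mean no to extremely severe erythema versus before injection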;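 for grade of skin lesion (erythema), 2 hours after administration: grades − to ++++ mean no to extremely severe erythema versus before injection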;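 for grade of skin lesion (erythema), Immediately after administration: grades − to ++++ mean no to extremely severe erythema versus before injection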
Experimental: (§1) To evaluate the degree of edema, each test compositions described above were injected into the paw of the rats. Specifically, male Sprague Dawley rats (6 weeks old) were purchased and used after one week of adaptation. The rats (body weight: 170˜200 g) were randomly selected and the thickness of the rat paw were measured with a caliper before the administration of the test compositions. In order to observe the edema, 0.1 ml of PBS and the various test compositions were administered to the paws of the rats. Measurements of the […] were performed by a caliper immediately before the injection, immediately after the injection, and 1 or 2 hours after the injection. In addition, when the thickness was measured, the skin lesion of the injection site was observed by photographing the sole of the paw (using a 4×4 cm scale).
The grades of skin lesion were evaluated as 0 to 4 grades.

paw of the rats = test: Rat paw edema; assay type: in vivo, Sprague Dawley rats; details: for degree of edema in words: 2 hours after administration, rat paw; for degree of edema, 1 hour after administration / degree of edema, 2 hours after administration / degree of edema, Immediately after administration: 0.1 ml into rat paw
Experimental: as §1
The degree of edema was evaluated as 0 to 4 grades.

[3] = bile acid single composition 1.0% (w/v)
[4] = bile acid single composition 2.5% (w/v)
[5] = bile acid single composition 5.0% (w/v)
[6] = bile acid single composition 7.5% (w/v)

Compound | bile acid concentration at which stable injectable preparations can be made [1] [%] | Inflammation (H&E), BA % (w/v) 1.0 [2] | Inflammation (H&E), BA % (w/v) 2.5 [2] | Inflammation (H&E), BA % (w/v) 5.0 [2] | degree of inflammation (H&E) in words [2] | grade of skin lesion (erythema), 1 hour after administration (sole of the rat paws; [3]) | grade of skin lesion (erythema), 2 hours after administration (sole of the rat paws; [3]) | grade of skin lesion (erythema), Immediately after administration (sole of the rat paws; [3]) | grade of skin lesion (erythema), 1 hour after administration (sole of the rat paws; [4]) | grade of skin lesion (erythema), 2 hours after administration (sole of the rat paws; [4]) | grade of skin lesion (erythema), Immediately after administration (sole of the rat paws; [4]) | grade of skin lesion (erythema), 1 hour after administration (sole of the rat paws; [5]) | grade of skin lesion (erythema), 2 hours after administration (sole of the rat paws; [5]) | grade of skin lesion (erythema), Immediately after administration (sole of the rat paws; [5]) | grade of skin lesion (erythema), 1 hour after administration (sole of the rat paws; [6]) | grade of skin lesion (erythema), 2 hours after administration (sole of the rat paws; [6]) | grade of skin lesion (erythema), Immediately after administration (sole of the rat paws; [6]) | bile acid/PPC molar ratio below which a substantially stable formulation did not occur [1] | degree of edema, 1 hour after administration (paw of the rats; [3]) | degree of edema, 2 hours after administration (paw of the rats; [3]) | also measured
C[C@H](CCC(=O)O)[C@H]1CC[C@H]2[C@@H]3[C@H](O)C[C@@H]4C[C@H](O)CC[C@]4(C)[C@H]3C[C@H](O)[C@]12C [CA, (4R)-4-[(3R,5S,7R,8R,9S,10S,12S,13R,14S,17R)-3,7,12-trihydroxy-10,13-dimethyl-2,3,4,5,6,7,8,9,11,12,14,15,16,17-tetradecahydro-1H-cyclopenta[a]phenanthren-17-yl]pentanoic acid] | ≥ 2.2 |  |  |  |  |  |  |  |  |  |  |  |  |  |  |  |  |  |  |  | 
C[C@H](CCC(=O)O)[C@H]1CC[C@H]2[C@@H]3[C@H](O)C[C@@H]4C[C@H](O)CC[C@]4(C)[C@H]3CC[C@]12C [CDCA] | ≥ 2.2 | ++ | +++ | +++ | Moderate | ++ | ++ | + | ++++ | ++++ | ++ | ++++ | ++++ | ++ | ++++ | ++++ | ++ | less than 0.89 | +++ (severe edema [+++, (the degree of swelling was 40-60% compared to before the injection)]) | +++ (severe edema [+++, (the degree of swelling was 40-60% compared to before the injection)]) | skin lesion (erythema) in words (sole of the rat paws; listed as CDCA 1.0%): Moderate; skin lesion (erythema) in words (sole of the rat paws; listed as CDCA 2.5%): “severe” and “extremely severe”; degree of edema in words (paw of the rats; listed as CDCA 1.0%): Moderate; degree of edema in words (paw of the rats; listed as CDCA 2.5%): “severe” and “extremely severe”; degree of edema, Immediately after administration (paw of the rats; [3]): ++ (moderate edema [++, (the degree of swelling was 20-40% compared to before the injection)]); degree of edema, 1 hour after administration (paw of the rats; [4]): +++ (severe edema [+++, (the degree of swelling was 40-60% compared to before the injection)]); degree of edema, 2 hours after administration (paw of the rats; [4]): ++++ (extremely severe edema [++++, (the degree of swelling was 60% or more compared to before the injection)]); degree of edema, Immediately after administration (paw of the rats; [4]): ++ (moderate edema [++, (the degree of swelling was 20-40% compared to before the injection)]); degree of edema, 1 hour after administration (paw of the rats; [5]): ++++ (extremely severe edema [++++, (the degree of swelling was 60% or more compared to before the injection)]); degree of edema, 2 hours after administration (paw of the rats; [5]): ++++ (extremely severe edema [++++, (the degree of swelling was 60% or more compared to before the injection)]); degree of edema, Immediately after administration (paw of the rats; [5]): ++ (moderate edema [++, (the degree of swelling was 20-40% compared to before the injection)]); degree of edema, 1 hour after administration (paw of the rats; [6]): ++++ (extremely severe edema [++++, (the degree of swelling was 60% or more compared to before the injection)]); degree of edema, 2 hours after administration (paw of the rats; [6]): ++++ (extremely severe edema [++++, (the degree of swelling was 60% or more compared to before the injection)]); degree of edema, Immediately after administration (paw of the rats; [6]): ++ (moderate edema [++, (the degree of swelling was 20-40% compared to before the injection)])
C[C@H](CCC(=O)NCC(=O)O)[C@H]1CC[C@H]2[C@@H]3CCC4C[C@H](O)CC[C@]4(C)[C@H]3C[C@H](O)[C@]12C (stereo partly drawn) [GDCA, 2-[[(4R)-4-[(3R,8R,9S,10S,12S,13R,14S,17R)-3,12-dihydroxy-10,13-dimethyl-2,3,4,5,6,7,8,9,11,12,14,15,16,17-tetradecahydro-1H-cyclopenta[a]phenanthren-17-yl]pentanoyl]amino]acetic acid] | ≥ 2.4 | ++ | +++ |  | Moderate | ++ | ++ | ++ | ++++ | ++++ | ++ | ++++ | ++++ | ++ | ++++ | ++++ | ++ | less than 0.87 | +++ (severe edema [+++, (the degree of swelling was 40-60% compared to before the injection)]) | ++ (moderate edema [++, (the degree of swelling was 20-40% compared to before the injection)]) | skin lesion (erythema) in words (sole of the rat paws; listed as GDCA 1.0%): Moderate; skin lesion (erythema) in words (sole of the rat paws; listed as GDCA 2.5%): “severe” and “extremely severe”; degree of edema in words (paw of the rats; listed as GDCA 1.0%): moderate; degree of edema in words (paw of the rats; listed as GDCA 2.5%): “severe” and “extremely severe”; degree of edema, Immediately after administration (paw of the rats; [3]): ++ (moderate edema [++, (the degree of swelling was 20-40% compared to before the injection)]); degree of edema, 1 hour after administration (paw of the rats; [4]): +++ (severe edema [+++, (the degree of swelling was 40-60% compared to before the injection)]); degree of edema, 2 hours after administration (paw of the rats; [4]): +++ (severe edema [+++, (the degree of swelling was 40-60% compared to before the injection)]); degree of edema, Immediately after administration (paw of the rats; [4]): ++ (moderate edema [++, (the degree of swelling was 20-40% compared to before the injection)]); degree of edema, 1 hour after administration (paw of the rats; [5]): ++++ (extremely severe edema [++++, (the degree of swelling was 60% or more compared to before the injection)]); degree of edema, 2 hours after administration (paw of the rats; [5]): ++++ (extremely severe edema [++++, (the degree of swelling was 60% or more compared to before the injection)]); degree of edema, Immediately after administration (paw of the rats; [5]): ++ (moderate edema [++, (the degree of swelling was 20-40% compared to before the injection)]); degree of edema, 1 hour after administration (paw of the rats; [6]): ++++ (extremely severe edema [++++, (the degree of swelling was 60% or more compared to before the injection)]); degree of edema, 2 hours after administration (paw of the rats; [6]): ++++ (extremely severe edema [++++, (the degree of swelling was 60% or more compared to before the injection)]); degree of edema, Immediately after administration (paw of the rats; [6]): ++ (moderate edema [++, (the degree of swelling was 20-40% compared to before the injection)])
C[C@H](CCC(=O)NCCS(=O)(=O)O)[C@H]1CC[C@H]2[C@@H]3[C@H](O)C[C@@H]4C[C@H](O)CC[C@]4(C)[C@H]3C[C@H](O)[C@]12C [TCA, 2-[[(4R)-4-[(3R,5S,7R,8R,9S,10S,12S,13R,14S,17R)-3,7,12-trihydroxy-10,13-dimethyl-2,3,4,5,6,7,8,9,11,12,14,15,16,17-tetradecahydro-1H-cyclopenta[a]phenanthren-17-yl]pentanoyl]amino]ethanesulfonic acid] | ≥ 2.5 | + | ++ | ++ |  |  | − |  |  | + |  |  | + |  |  | ++ |  |  |  |  | 
